Among the data in patent US4920127A, “Substituted indoles and their use as 5-HT3 receptor antagonists” (Beecham Group p.l.c., priority 1987, dated 1990) are ED50 values, retold here.

Structures can show the parent of a compound that is named as a salt.

In the assay the test system is von Bezold-Jarisch reflex evoked by 5-HT. Description: Antagonism of the von Bezold-Jarisch reflex evoked by 5-HT in the anaesthetised rat. The class given is in vivo. Particulars: iv, male rats, urethane anaesthesia, compounds intravenously, 5-HT usually 6 μg/kg i.v., heart rate changes, read-out: ED50 (concentration required to reduce the 5HT-evoked response to 50% of the control response). How it is done:
Antagonism of the von Bezold-Jarisch reflex
The compounds were evaluated for antagonism of the von Bezold-Jarisch reflex evoked by 5-HT in the anaesthetised rat according to the following method:
Male rats, 250-350 g, were anaesthetised with urethane (1.25 g/kg intraperitoneally) and blood pressure and heart rate recorded as described by Fozard J. R. et al., J. Cardiovasc. Pharmacol. 2, 229-245 (1980). A submaximal dose of 5-HT (usually 6 μg/kg) was given repeatedly by the intravenous route and changes in heart rate quantified. Compounds were given intravenously and the concentration required to reduce the 5HT-evoked response to 50% of the control response (ED50) was then determined.
On to `CN1[C@@H]2CC[C@H]1C[C@@H](NC(=O)N1CC3(CCCCC3)c3ccccc31)C2` [Compound 1], for which the ED50 is 3.6 µg/kg.

For the molecule `CN1[C@@H]2CC[C@H]1C[C@@H](NC(=O)N1CC3(CC3)c3ccccc31)C2` [Compound 6], the ED50 is 3.5 µg/kg.

In the case of `O=C(NC1CN2CCC1CC2)N1CC(c2ccccc2)c2ccccc21` (stereo not shown) [Compound 8, N-(1-Azabicyclo[2.2.2]oct-3-yl)2,3-dihydro-3-phenylindol-1-yl urea hydrochloride], the ED50 was found to be 1.2 µg/kg.

Turning to `CN1[C@@H]2CC[C@H]1C[C@@H](NC(=O)N1CC3(CCCC3)c3ccccc31)C2` [Compound 10], the ED50 was 1.8 µg/kg.
